The values that follow come from patent US20260167615A1, “COMPOUNDS AND COMPOSITIONS AS GPR52 MODULATORS” (Neurocrine Biosciences, Inc., priority 2022, published 2026).

The target in the test is recombinant human GPR52 (Homo sapiens, UniProt Q9Y2T5). The experiment in a line: HTRF cAMP assay, GPR52 activity (Example A). Format: cell-based. The conditions noted are these: for EC50: average EC50 (n=1 to 15), Flp-In-CHO cells stably expressing recombinant human GPR52, cAMP HTRF, read-out: EC50 (N=); for Emax: maximum cAMP at 10 μM or 31.6 μM test compound, as percentage of Emax of control compound 4-(3-(3-fluoro-5-(trifluoromethyl)benzyl)-5-methyl-4,5-dihydro-1H-1,2,4-triazol-1-yl)-2-methylbenzamide. The essentials: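 Flp-In CHO cells stably expressing human GPR52 (20,000/well) incubated 30 min at room temperature with compound, cAMP then quantified by competitive HTRF. EC50 from nonlinear fits of cAMP-transformed data normalized to positive control; Emax is top plateau at 10 or 31.6 μM, given as % of a reference agonist's Emax.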
Background: Time-resolved FRET reads energy transfer from a long-lived donor to a nearby acceptor.

Molecules are shown by their SMILES. Some results are limits rather than exact numbers.

recombinant human GPR52, sequence (Q9Y2T5 whole entry): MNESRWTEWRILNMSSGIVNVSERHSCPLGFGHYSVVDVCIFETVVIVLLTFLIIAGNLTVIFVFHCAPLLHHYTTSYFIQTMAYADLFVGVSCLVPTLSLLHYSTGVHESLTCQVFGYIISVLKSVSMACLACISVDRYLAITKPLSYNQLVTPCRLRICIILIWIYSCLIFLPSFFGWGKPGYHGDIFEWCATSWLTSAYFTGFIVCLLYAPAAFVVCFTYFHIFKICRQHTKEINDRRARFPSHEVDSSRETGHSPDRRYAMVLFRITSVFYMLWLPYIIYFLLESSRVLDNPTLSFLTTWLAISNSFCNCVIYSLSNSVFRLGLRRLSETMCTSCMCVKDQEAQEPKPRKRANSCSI

Turning to `CCc1cc(-c2cc(Oc3cnc4c(C(F)(F)F)cccc4c3)ccn2)ccc1C(N)=O` [Example 109, 2-ethyl-4-(4-((8-(trifluoromethyl)quinolin-3-yl)oxy)pyridin-2-yl)benzamide], the EC50 (in general, the midpoint of the concentration-response curve) lay within 101 to 1000 nM and the Emax (in general, the maximal effect, on the per cent scale that the assay sets) turned out to be 75%.

With `Cc1cc(-c2cc(Oc3ccc4c(c3)CCO4)ccn2)ccc1C(N)=O` [Example 67, 4-(4-((2,3-dihydrobenzofuran-5-yl)oxy)pyridin-2-yl)-2-methylbenzamide], the half-maximal effective concentration (EC50) lay in the range of 101 to 1000 nM and the Emax was found to be 129%.

As for `Cc1cc(-c2cc(Oc3cnc4c(c3)c(C)nn4C)ccn2)ccc1C(N)=O` [Example 54, 4-(4-((1,3-dimethyl-1H-pyrazolo[3,4-b]pyridin-5-yl)oxy)pyridin-2-yl)-2-methylbenzamide], the 50% effective concentration (EC50) lay in the range of 101 to 1000 nM and the maximal response (Emax) worked out at 110%.

In the case of `Cc1nn(C)c2cc(Oc3ccnc(-c4ccc(C(N)=O)c(C(F)(F)F)c4)c3)ccc12` [Example 42, 4-(4-((1,3-dimethyl-1H-indazol-6-yl)oxy)pyridin-2-yl)-2-(trifluoromethyl)benzamide], the EC50 was in the range of 101 to 1000 nM and the Emax is 83%.

With `CCc1cc(-c2cc(Oc3cc(F)c4cnn(C)c4c3)cc3nccn23)ccc1C(N)=O` [Example 72, 2-ethyl-4-(7-((4-fluoro-1-methyl-1H-indazol-6-yl)oxy)imidazo[1,2-a]pyridin-5-yl)benzamide], the concentration giving a half-maximal response (EC50) lay within 25 to 100 nM and the Emax was determined as 69%.

In the case of `CCc1cc(-c2cc(Oc3ccc4c(C)nn(C(F)(F)F)c4c3)ccn2)ccc1C(N)=O` [Example 134, 2-ethyl-4-(4-((3-methyl-1-(trifluoromethyl)-1H-indazol-6-yl)oxy)pyridin-2-yl)benzamide], the EC50 fell in the range of 101 to 1000 nM and the Emax worked out at 117%.

For `Cc1nn(C)c2cc(Oc3ccnc(-c4ccc(C(N)=O)c(Cl)c4)c3)ccc12` [Example 40, 2-chloro-4-(4-((1,3-dimethyl-1H-indazol-6-yl)oxy)pyridin-2-yl)benzamide], the EC50 lay within 25 to 100 nM and the Emax came out at 92%.

Regarding `Cc1cc(-c2cc(Oc3ccc4ccoc4c3)ccn2)ccc1C(N)=O` [Example 87, 4-(4-(benzofuran-6-yloxy)pyridin-2-yl)-2-methylbenzamide], the EC50 lay in the range of 101 to 1000 nM and the Emax was 68%.

With `CCc1cc(-c2cc(Oc3cnc4c(c3)C=C(F)CC4)ccn2)ccc1C(N)=O` [Example 122, 2-ethyl-4-(4-((6-fluoro-7,8-dihydroquinolin-3-yl)oxy)pyridin-2-yl)benzamide], the concentration giving a half-maximal response (EC50) was in the range of 101 to 1000 nM and the maximal response (Emax) turned out to be 121%.

On to `Cc1cc(-c2cccc(Oc3cnc4c(C)nn(C)c4c3)c2)ccc1C(N)=O` [Example 31, 3′-((1,3-dimethyl-1H-pyrazolo[4,3-b]pyridin-6-yl)oxy)-3-methyl-[1,1′-biphenyl]-4-carboxamide], for which the EC50 is 101 to 1000 nM and the Emax worked out at 88%.

Regarding `CCc1cc(-c2cc(Oc3cnc4c(c3)c(C(F)(F)F)nn4C)cc3nccn23)ccc1C(N)=O` [Example 77, 2-ethyl-4-(7-((1-methyl-3-(trifluoromethyl)-1H-pyrazolo[3,4-b]pyridin-5-yl)oxy)imidazo[1,2-a]pyridin-5-yl)benzamide], the half-maximal effective concentration (EC50) was 101 to 1000 nM and the maximal response (Emax) amounted to 75%.

As to `Cc1cc(-c2cc(Oc3ccc4ccncc4c3)ccn2)ccc1C(N)=O` [Example 79, 4-(4-(isoquinolin-7-yloxy)pyridin-2-yl)-2-methylbenzamide], the EC50 was 101 to 1000 nM and the Emax came to 60%.

Take `Cc1cc(-c2cccc(Oc3ccc4cnn(C)c4c3)c2)ccc1C(N)=O` [Example 51, 3-methyl-3′-((1-methyl-1H-indazol-6-yl)oxy)-[1,1′-biphenyl]-4-carboxamide]: the concentration for a half-maximal effect (EC50) lay within 1000 to 2000 nM and the Emax came out at 96%.

`Cc1cc(-c2cc(Oc3ccc4nn(C)cc4c3)ccn2)ccc1C(N)=O` [Example 6, 2-methyl-4-(4-((2-methyl-2H-indazol-5-yl)oxy)pyridin-2-yl)benzamide]: the concentration giving a half-maximal response (EC50) is 101 to 1000 nM and the maximum response (Emax) amounted to 110%.

Regarding `Cc1cc(-c2cc(Oc3ccc4c(c3)c(F)nn4C)ccn2)ccc1C(N)=O` [Example 129, 4-(4-((3-fluoro-1-methyl-1H-indazol-5-yl)oxy)pyridin-2-yl)-2-methylbenzamide], the concentration giving a half-maximal response (EC50) is 101 to 1000 nM and the maximum response (Emax) is 126%.

As to `Cc1cc(-c2cc(Oc3cnc4c(c3)c(F)nn4C)ccn2)ccc1C(N)=O` [Example 126, 4-(4-((3-fluoro-1-methyl-1H-pyrazolo[3,4-b]pyridin-5-yl)oxy)pyridin-2-yl)-2-methylbenzamide], the half-maximal effective concentration (EC50) was 101 to 1000 nM and the Emax amounted to 103%.

In the case of `CCc1cc(-c2cc(Oc3ccc4cnn(C)c4c3)ccn2)ccc1C(=O)NC` [Example 59, 2-ethyl-N-methyl-4-(4-((1-methyl-1H-indazol-6-yl)oxy)pyridin-2-yl)benzamide], the concentration giving a half-maximal response (EC50) lay within 101 to 1000 nM and the maximal effect (Emax) worked out at 95%.

For `CCc1cc(-c2cc(Oc3cnc4cnn(C)c4c3)ccn2)ccc1C(N)=O` [Example 27, 2-ethyl-4-(4-((1-methyl-1H-pyrazolo[4,3-b]pyridin-6-yl)oxy)pyridin-2-yl)benzamide], the EC50 was 101 to 1000 nM and the Emax was determined as 99%.

On to `Cn1ncc2ccc(Oc3ccnc(-c4ccc(C(N)=O)c(Cl)c4)c3)cc21` [Example 45, 2-chloro-4-(4-((1-methyl-1H-indazol-6-yl)oxy)pyridin-2-yl)benzamide], for which the EC50 was 101 to 1000 nM and the Emax was determined as 88%.

As for `Cc1cc(-c2cc(Oc3cnc4cnn(C)c4c3)ccn2)ccc1C(N)=O` [Example 12, 2-methyl-4-(4-((1-methyl-1H-pyrazolo[4,3-b]pyridin-6-yl)oxy)pyridin-2-yl)benzamide], the half-maximal effective concentration (EC50) is 101 to 1000 nM and the Emax was found to be 103%.

As for `CCc1cc(-c2cc(Oc3ccc4c(C)nn(C)c4c3)ccn2)ccc1C(N)=O` [Example 53, 4-(4-((1,3-dimethyl-1H-indazol-6-yl)oxy)pyridin-2-yl)-2-ethylbenzamide], the EC50 fell in the range of 25 to 100 nM and the Emax was determined as 105%.

For `CCc1cc(-c2cc(Oc3cnc4cnn(C)c4c3)cc(N)n2)ccc1C(N)=O` [Example 17, 4-(6-amino-4-((1-methyl-1H-pyrazolo[4,3-b]pyridin-6-yl)oxy)pyridin-2-yl)-2-ethylbenzamide], the EC50 was 101 to 1000 nM and the Emax was determined as 102%.

In the case of `Cc1cc(-c2nccc(Oc3ccc4cnn(C)c4c3)n2)ccc1C(N)=O` [Example 14, 2-methyl-4-(4-((1-methyl-1H-indazol-6-yl)oxy)pyrimidin-2-yl)benzamide], the EC50 was 101 to 1000 nM and the Emax was 93%.

With `Cc1cc(-c2cc(Oc3cnc4c(c3)c(C)nn4C)cc(N)n2)ccc1C(N)=O` [Example 23, 4-(6-amino-4-((1,3-dimethyl-1H-pyrazolo[3,4-b]pyridin-5-yl)oxy)pyridin-2-yl)-2-methylbenzamide], the EC50 lay in the range of 101 to 1000 nM and the Emax was determined as 107%.

Take `Cc1cc(-c2cc(Oc3ccc4c(c3)NCCO4)ccn2)ccc1C(N)=O` [Example 69, 4-(4-((3,4-dihydro-2H-benzo[b][1,4]oxazin-6-yl)oxy)pyridin-2-yl)-2-methylbenzamide]: the EC50 is < 25 nM and the Emax came out at 119%.

Take `CCc1cc(-c2cc(Oc3ccc4cnccc4c3)ccn2)ccc1C(N)=O` [Example 71, 2-ethyl-4-(4-(isoquinolin-6-yloxy)pyridin-2-yl)benzamide]: the EC50 was 25 to 100 nM and the maximal response (Emax) stood at 107%.

As to `Cc1cnc2ccc(Oc3ccnc(-c4ccc(C(N)=O)c(C)c4)c3)cc2c1` [Example 108, 2-methyl-4-(4-((3-methylquinolin-6-yl)oxy)pyridin-2-yl)benzamide], the concentration giving a half-maximal response (EC50) lay within 101 to 1000 nM and the maximal effect (Emax) turned out to be 150%.

As for `CCc1cc(-c2cc(Oc3cc(C)c4cnn(C)c4c3)ccn2)ccc1C(N)=O` [Example 46, 4-(4-((1,4-dimethyl-1H-indazol-6-yl)oxy)pyridin-2-yl)-2-ethylbenzamide], the EC50 was in the range of 101 to 1000 nM and the maximal effect (Emax) was found to be 63%.

Regarding `Cc1cc(-c2cc(Oc3ccc4c(N)nn(C)c4c3)ccn2)ccc1C(N)=O` [Example 49, 4-(4-((3-amino-1-methyl-1H-indazol-6-yl)oxy)pyridin-2-yl)-2-methylbenzamide], the EC50 was 101 to 1000 nM and the Emax is 53%.

As to `Cc1nc2cc(Oc3ccnc(-c4ccc(C(N)=O)c(C)c4)c3)ccc2s1` [Example 86, 2-methyl-4-(4-((2-methylbenzo[d]thiazol-5-yl)oxy)pyridin-2-yl)benzamide], the EC50 was 101 to 1000 nM and the maximum response (Emax) came out at 86%.

For the molecule `CCc1cc(-c2cc(Oc3cc(F)c4cnn(C)c4c3)ccn2)ccc1C(N)=O` [Example 36, 2-ethyl-4-(4-((4-fluoro-1-methyl-1H-indazol-6-yl)oxy)pyridin-2-yl)benzamide], the EC50 was < 25 nM and the Emax was found to be 105%.

`CCc1cc(-c2cc(Oc3cnc4c(Cl)cccc4c3)ccn2)ccc1C(N)=O` [Example 112, 4-(4-((8-chloroquinolin-3-yl)oxy)pyridin-2-yl)-2-ethylbenzamide]: the concentration for a half-maximal effect (EC50) is 101 to 1000 nM and the Emax worked out at 100%.

In the case of `CCc1cc(-c2cc(Oc3ccc4ncccc4c3)ccn2)ccc1C(N)=O` [Example 70, 2-ethyl-4-(4-(quinolin-6-yloxy)pyridin-2-yl)benzamide], the concentration giving a half-maximal response (EC50) fell in the range of 101 to 1000 nM and the maximum response (Emax) was found to be 126%.

In the case of `Cc1cc(-c2cc(N)nc(Oc3ccc4nn(C)cc4c3)c2)ccc1C(N)=O` [Example 15, 4-(2-amino-6-((2-methyl-2H-indazol-5-yl)oxy)pyridin-4-yl)-2-methylbenzamide], the concentration for a half-maximal effect (EC50) is 1000 to 2000 nM and the Emax came to 72%.
